Reference: patent US12642270B2, “Substituted thiophene carboxamides, thiophene carboxylic acids and derivatives thereof” (Bayer Aktiengesellschaft, priority 2019, dated 2026)
Each block holds one compound with its values, some of them ahead of it.

Key:
[1] = Log P by HPLC on reversed phase columns (EEC directive 79/831 Annex V.A8); format: physicochemical; settings: for chromatographic logP: reversed phase HPLC columns
Outline: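 Values come from retention times calibrated against alkan-2-ones (3–16 carbons) by linear interpolation, using reversed-phase LC-UV per EEC directive 79/831 Annex V.A8. Acetonitrile gradient 10–95% with 0.1% formic acid [a], 0.001 M ammonium acetate [b] or 0.1% phosphoric acid [c]; several values within one method separated by "+".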

[2] = tested on: Colletotrichum lindemuthianum; test: Example O: Colletotrichum lindemuthianum in vitro cell test, formula (II); format: cell-based; settings: 144 h, 6 days incubation, read-out: efficacy (inhibition of fungal growth; no direct activity); for inhibition at 10 ppm: 10 ppm of active ingredient; for inhibition at 20 ppm: 20 ppm of active ingredient
Method: • Solvent: DMSO • Culture medium: 14.6 g anhydrous D-glucose (VWR), 7.1 g Mycological Peptone (Oxoid), 1.4 g granulated Yeast Extract (Merck), QSP 1 liter • Inoculum: spores suspension Fungicides were solubilized in DMSO and the solution used to prepare the required range of concentrations. The final concentration of DMSO used in the assay was: ≤[…]1%. A spore suspension of C. lindemuthianum was prepared and diluted to the desired spore density. Fungicides were evaluated for their ability to inhibit spores germination and mycelium growth in liquid culture assay. The compounds were added in the desired concentration to the culture medium with spores. After 6 days incubation, fungi-toxicity of compounds was determined by spectrometric measurement of mycelium growth. Inhibition of fungal growth was determined by comparing the absorbance values in wells containing the fungicides with the absorbance in control wells without fungicides.

[3] = tested on: Xanthomonas campestris pv. campestris; test: Example P: Xanthomonas campestris pv. campestris in vitro cell test, formula (II); format: cell-based; settings: 20 ppm of active ingredient, 24 h incubation, read-out: efficacy (inhibition of bacteria growth; no direct activity)
Method: • Solvent: DMSO • Culture medium: LB broth medium (Luria Broth Miller) Sigma • Inoculum: bacteria suspension
Compounds were solubilized in DMSO and the solution used to prepare the required range of concentrations. The final concentration of DMSO used in the assay was ≤1%.
Inoculum was prepared from a pre-culture of bacteria grown in liquid medium and diluted to the desired optical density (OD).
Compounds were evaluated for their ability to inhibit bacteria growth in liquid culture assay. The compounds were added in the desired concentrations to culture medium containing the bacteria suspension. After 24 h of incubation, the efficacy of compounds was determined by spectrometric measurement of bacteria growth. Inhibition was determined by comparing the absorbance values in wells containing the compounds with the absorbance in control wells without active ingredients.

[4] = tested on: salicylate responsive promoter sequence of the PR1 (pathogenesis-related protein I) gene (AT2G14610); test: Example A: induction of defense gene expression in Arabidopsis thaliana (PR1 promoter-GFP reporter plants), formula (I); format: in vivo; settings: 300 ppm, 3rd day after spraying, mock treated leaves = 1.00
Method: (§1) Arabidopsis thaliana reporter plants containing the coding sequence of a green fluorescent protein (GFP) linked to the salicylate responsive promoter sequence of the PR1 (pathogenesis-related protein I) gene (AT2G14610) were grown for five days and then sprayed with compounds. On the 3rd day after spraying, plant fluorescence was assessed with a MacroFluo instrument from Leica Microsystems (Wetzlar, Germany). Fluorescences were quantified with the Meta-Morph Microscopy Automation & Image Analysis Software (Molecular Devices, Sunnyvale, Calif., United States).
(§2) Background fluorescence in mock treated leaves was set as 1.00.

[5] = tested on: salicylate responsive promoter sequence of the PR1 (pathogenesis-related protein I) gene (AT2G14610); test: Example K: induction of defense gene expression in Arabidopsis thaliana (PR1 promoter-GFP reporter plants), formula (II); format: in vivo; settings: 300 ppm, 3rd day after spraying, mock treated leaves = 1.00
Method: as §1, §2

[6] = method [a]: LC-UV, acidic range, 0.1% formic acid in water and acetonitrile
[7] = value in preparation example, method not marked

Compound: COC(=O)c1sc(Cl)c(C#N)c1C [II.028, methyl 5-chloro-4-cyano-3-methylthiophene-2-carboxylate]
chromatographic logP [1, 6]: 2.98
chromatographic logP [1, 7]: 3.01
inhibition at 10 ppm [2]: ≤ 30%
inhibition at 20 ppm [2]: ≤ 30%
inhibition at 20 ppm [3]: ≤ 30%

Compound: COC(=O)c1cc(Cl)c(C#N)s1 [II.046, methyl 4-chloro-5-cyanothiophene-2-carboxylate]
chromatographic logP [1, 6]: 2.52
chromatographic logP [1, 7]: 2.52
inhibition at 10 ppm [2]: ≤ 30%
inhibition at 20 ppm [2]: ≤ 30%
inhibition at 20 ppm [3]: ≤ 30%

Compound: COC(=O)c1sc(Cl)c(Cl)c1C#N [II.085, methyl 4,5-dichloro-3-cyanothiophene-2-carboxylate]
chromatographic logP [1, 6]: 2.98
chromatographic logP [1, 7]: 2.98
inhibition at 10 ppm [2]: ≤ 30%
inhibition at 20 ppm [2]: ≤ 30%
inhibition at 20 ppm [3]: ≤ 30%

Compound: O=C(O)c1sc(F)c(Br)c1Br [II.094]
LogP [1, 6]: 2.26^[a]

Compound: N#Cc1c(Cl)sc(C(=O)O)c1Br [II.098]
LogP [1, 6]: 1.68^[a]

Compound: O=C(O)c1sc(C(F)F)c(Br)c1Br [II.099]
LogP [1, 6]: 2.51^[a]

Compound: N#Cc1cc(C(=O)O)sc1Br [II.100]
LogP [1, 6]: 1.48^[a]

Compound: Cc1c(C(=O)O)sc(F)c1Cl [II.101]
LogP [1, 6]: 2.45^[a]

Compound: Cc1c(C(=O)O)sc(F)c1Br [II.102]
LogP [1, 6]: 2.53^[a]

Compound: N#Cc1c(C(=O)O)sc(Cl)c1Cl [II.103, 4,5-dichloro-3-cyanothiophene-2-carboxylic acid]
chromatographic logP [1, 6]: 1.61
chromatographic logP [1, 7]: 1.61

Compound: N#Cc1c(C(=O)O)sc(Br)c1Br [II.104]
LogP [1, 6]: 1.71^[a]

Compound: O=C(O)c1ccccc1O [Salicylic acid]
relative fluorescence value [4]: 2.70
relative fluorescence value [5]: 2.70

Second part, led by results:

chromatographic logP [1, 6]: 2.01
Compound: Cc1c(C(=O)O)sc(C#N)c1Br [II.042, 4-bromo-5-cyano-3-methylthiophene-2-carboxylic acid]
inhibition at 10 ppm [2]: ≤ 30%
inhibition at 20 ppm [2]: ≤ 30%
inhibition at 20 ppm [3]: ≤ 30%

LogP [1, 6]: 1.55^[a]
Compound: N#Cc1sc(C(=O)O)c(Cl)c1Br [II.087]

LogP [1, 6]: 1.51^[a]
Compound: N#Cc1sc(C(=O)O)c(Cl)c1Cl [II.088]

LogP [1, 6]: 4.62^[a]
Compound: CCOC(=O)c1sc(Cl)c(Br)c1Cl [II.089]

LogP [1, 6]: 3.01^[a]
Compound: CCOC(=O)c1cc(C#N)c(Cl)s1 [II.090]

LogP [1, 6]: 3.44^[a]
Compound: CCOC(=O)c1sc(Br)c(C#N)c1Cl [II.091]

LogP [1, 6]: 3.56^[a]
Compound: CCOC(=O)c1sc(C#N)c(Cl)c1Br [II.092]

LogP [1, 6]: 3.46^[a]
Compound: CCOC(=O)c1sc(Cl)c(C#N)c1Br [II.093]

LogP [1, 6]: 2.92^[a]
Compound: COC(=O)c1sc(Cl)c(C#N)c1Br [II.095]

LogP [1, 6]: 3.04^[a]
Compound: COC(=O)c1sc(C#N)c(Cl)c1Br [II.096]

LogP [1, 6]: 1.64^[a]
Compound: N#Cc1sc(C(=O)O)c(Br)c1Cl [II.097]
